Holding throughout (assay type): cell-based
Data set [1] concerns hTERT ipNF95.11b C (plexiform neurofibroma) cell line. Description: Cell viability of NF1-mutant tumor cell line hTERT ipNF95.11b C (MTT or AlamarBlue). The note with it: 7 days treatment. How it is done:
(§1) Mycoplasma-free tumor cell lines from different tumor types carrying mutations in the NF1 gene (see Table 1) were seeded in 50 μl/well of complete medium (as described in Table 2, all reagents from Thermo Fisher) in 96-well plates at the optimal cell density to ensure log-phase growth throughout the duration of the experiment (see Table 2). The day after seeding, 50 μl of medium containing 9 serial dilutions (1:3) of 2×-concentrated iadademstat (LSD1 inhibitor; used as the dihydrochloride salt) were added to the cells to obtain 100 μl of cells treated with 1×-concentrated compound at each dilution. Additionally, the effect of other LSD1 inhibitors, i.e. bomedemstat (bis-tosylate salt) and pulrodemstat (besylate salt), was likewise evaluated in a subset of these tumor cell lines (sNF96.2, sNF02.2, MOLM13 and NCIH510A).
(§2) Each experimental condition was tested in technical triplicates, including medium-only wells and vehicle-treated controls for background correction and normalization, respectively. […] After treatment, cell viability was evaluated using either the MTT assay (Sigma-Aldrich) or AlamarBlue™ Cell viability reagent (Life Technologies), following manufacturer's instructions. Background was calculated as the mean of the values of medium-only controls and subtracted from each data point. […]

Data set [2] deals with MHHES1 (Ewing's sarcoma) cell line. Description: Cell viability of NF1-mutant tumor cell line MHHES1 (MTT or AlamarBlue). The following applies: 6 days treatment. How it is done:
as §1, §2

For data set [3], the system named is sNF96.2 (MPNST) cell line. Description: Cell viability of NF1-mutant tumor cell line sNF96.2 (MTT or AlamarBlue). The following applies: 6 days treatment. How it is done: as §1, §2
A general note: Alamar Blue is a resazurin reagent that responds to reducing activity.

Data set [4] relates to NCIH510A (SCLC) cell line. Description: Cell viability of NF1-mutant tumor cell line NCIH510A (MTT or AlamarBlue). The following applies: 10 days treatment; for EC50: Homo sapiens, NCI-H510A, 240 h, NF1 p. D2184G/p. L2618L. How it is done:
as §1
(§3) Each experimental condition was tested in technical triplicates, including medium-only wells and vehicle-treated controls for background correction and normalization, respectively. After treatment, cells were incubated at 37° C. in a humidified and controlled 5% CO2 atmosphere (see Table 2 for duration of treatment according to the growth curve of each cell line and number of cells seeded) and compound and medium refreshment was performed by adding 50 μl of medium supplemented with 1×-concentrated compound at each corresponding dilution when the duration of the treatment exceeded 4 days of drug incubation (see Table 2). After treatment, cell viability was evaluated using either the MTT assay (Sigma-Aldrich) or AlamarBlue™ Cell viability reagent (Life Technologies), following manufacturer's instructions. Background was calculated as the mean of the values of medium-only controls and subtracted from each data point. The average of background-corrected technical triplicates was calculated and normalized by the mean of vehicle-treated controls (corresponding to 100% of viability). Data were analyzed using GraphPad PRISM® version 9.0.1 (GraphPad Software, Inc., La Jolla, CA/USA) to calculate the best-fitting curves and the EC50 values (corresponding to the concentration of compound at which a half (50%) maximal effect is obtained; lower EC50 values thus indicate greater potency).

Data set [5] deals with RD (rhabdomyosarcoma) cell line. As to the kind of experiment: Cell viability of NF1-mutant tumor cell line RD (MTT or AlamarBlue). The following applies: 6 days treatment. How it is done: as §1, §2
The test system of the next data set is MOLT4 (ALL) cell line. Description: Cell viability of NF1-mutant tumor cell line MOLT4 (MTT or AlamarBlue). The note with it: 10 days treatment. How it is done: as §1, §2
Data set [6] deals with MPNST-NF1-18b (MPNST) cell line. As to the kind of experiment: Cell viability of NF1-mutant tumor cell line MPNST-NF1-18b (MTT or AlamarBlue). The following applies: 6 days treatment. How it is done:
as §1, §2

Another data set concerns NCIH446 (SCLC) cell line. As to the kind of experiment: Cell viability of NF1-mutant tumor cell line NCIH446 (MTT or AlamarBlue). The note with it: 10 days treatment. How it is done:
as §1, §2

Data set [7] relates to MDAMB231 (TN breast cancer) cell line. As to the kind of experiment: Cell viability of NF1-mutant tumor cell line MDAMB231 (MTT or AlamarBlue). The following applies: 4 days treatment. How it is done:
as §1, §2

Data set [8] concerns DAUDI (Burkitt's lymphoma) cell line. As to the kind of experiment: Cell viability of NF1-mutant tumor cell line DAUDI (MTT or AlamarBlue). The note with it: 4 days treatment. How it is done:
as §1, §2

Another data set concerns MOLM13 (AML) cell line. As to the kind of experiment: Cell viability of NF1-mutant tumor cell line MOLM13 (MTT or AlamarBlue). The note with it: 4 days treatment; for EC50: Homo sapiens, MOLM-13, 96 h, NF1 p. E1720D. How it is done: as §1, §3
For data set [9], the system named is TC71 (Ewing's sarcoma) cell line. As to the kind of experiment: Cell viability of NF1-mutant tumor cell line TC71 (MTT or AlamarBlue). The note with it: 6 days treatment. How it is done: as §1, §2
The subject of data set [10] is A204 (rhabdoid tumor) cell line. Description: Cell viability of NF1-mutant tumor cell line A204 (MTT or AlamarBlue). The following applies: 6 days treatment. How it is done:
as §1, §2

For data set [11], the system named is sNF02.2 (MPNST) cell line. Description: Cell viability of NF1-mutant tumor cell line sNF02.2 (MTT or AlamarBlue). The note with it: 6 days treatment; for EC50: 144 h, NF1 c. 4868A > T. How it is done:
as §1, §3

Data set [12] concerns hTERT ipnNF95.11c (plexiform neurofibroma) cell line. As to the kind of experiment: Cell viability of NF1-mutant tumor cell line hTERT ipnNF95.11c (MTT or AlamarBlue). The note with it: 7 days treatment. How it is done: as §1, §2

The structures appear in SMILES notation.

Turning to `N[C@H]1CC[C@H](N[C@@H]2C[C@H]2c2ccccc2)CC1` [Iadademstat, (trans)-N1-((1R,2S)-2-phenylcyclopropyl)cyclohexane-1,4-diamine], the EC50 in [1] (168 h, NF1 c. 1756delACTA/ LOH) worked out at 0.14 nM; in [3] (144 h, NF1 c. 3683delC + LOH) it was 0.042 nM; in [4], 0.16 nM; in the data set with MOLT4 (ALL) cell line (Homo sapiens, MOLT-4, 240 h, NF1 p. G1502G/ NS) it was 0.795 nM; in data set [6] (144 h, NF1 SNV at intron 14 + LOH), 0.025 nM; in the data set on MOLM13 (AML) cell line, 0.158 nM. Further, the EC50 in [10] (Homo sapiens, 144 h, NF1 p. L1274F) was determined as 0.1 nM; in data set [11], 0.02 nM; in data set [12] (168 h, NF1 c. 1756delACTA), 0.841 nM. The “Response (classification according to viability reduction)” value was “Medium (medium response (viability reduction>15% and <30%))” in data set [1]; “Low (low response (viability reduction<15%))” in data set [2]; “Strong (strong response (viability reduction>30%))” in [3]; “Strong (strong response (viability reduction>30%))” in data set [4]; “Low (low response (viability reduction<15%))” in data set [5]; “Strong (strong response (viability reduction>30%))” in the data set on MOLT4 (ALL) cell line. The “Response (classification according to viability reduction)” value is on record as “Strong (strong response (viability reduction>30%))” in [6]; “Low (low response (viability reduction<15%))” in the data set with NCIH446 (SCLC) cell line; “Low (low response (viability reduction<15%))” in [7]; “Low (low response (viability reduction<15%))” in data set [8]; “Strong (strong response (viability reduction>30%))” in the data set with MOLM13 (AML) cell line; “Low (low response (viability reduction<15%))” in data set [9]. Also, the “Response (classification according to viability reduction)” value in data set [10] is “Strong (strong response (viability reduction>30%))”; in data set [11], “Medium (medium response (viability reduction>15% and <30%))”; in [12] it was “Strong (strong response (viability reduction>30%))”.

Consider `CN1CCN(C(=O)[C@H](CCCN[C@@H]2C[C@H]2c2ccc(F)cc2)NC(=O)c2ccc(-n3ccnn3)cc2)CC1` [Bomedemstat, N-[(2S)-5-{[(1R,2S)-2-(4-fluorophenyl)cyclopropyl]amino}-1-(4-methylpiperazin-1-yl)-1-oxopentan-2-yl]-4-(1H-1,2,3-triazol-1-yl)benzamide], for which the values for the half-maximal effective concentration (EC50) (in [4]; in the data set with MOLM13 (AML) cell line; in [11]) were 10.5 nM, 5.38 nM and 0.094 nM, respectively.

On to `COc1ccc(-c2c(-c3ccc(C#N)c(F)c3)nc(N3CCC(N)CC3)n(C)c2=O)cc1F` [Pulrodemstat, 4-[2-(4-aminopiperidin-1-yl)-5-(3-fluoro-4-methoxyphenyl)-1-methyl-6-oxo-1,6-dihydropyrimidin-4-yl]-2-fluorobenzonitrile], for which the values for the half-maximal effective concentration (EC50) (in data set [4]; in the data set with MOLM13 (AML) cell line; in data set [11]) were 1.73 nM, 0.82 nM and 0.166 nM, respectively.

One may read the EC50 as the concentration needed to bring the measured effect to its halfway point.

The values are drawn from patent US20250295660A1, “METHODS OF TREATING NF1-MUTANT TUMORS USING LSD1 INHIBITORS” (ORYZON GENOMICS, S.A., priority 2022, published 2025).
